Where two headings read alike, the source gives them in different places.
Experiments:
HIV-1 = experiment: Luciferase Assay with single-round reporter virus (NLXLuc or HIV-Luc); assay type: cell-based; settings: Human immunodeficiency virus 1
Text: Infectivity assays using reporter viruses derived from lentiviral vectors capable of a single round of infection were used to determine the activity (EC50) of compounds. The DNA used to generate viruses for infection was the full-length HIV-1 genome which had been envelope-deleted. In addition, a reporter gene (the firefly luciferase gene from Photinus pyralis) was cloned into the nefregion of the HIV backbone for ease of assay readout. […]. Culture supernatants containing VSV-G pseudotyped virions were harvested 64 h post transfection, clarified by centrifugation to remove cell debris, and frozen at −70° C. until use.
293FT cells were plated out at 12000 cells per well in CellView 96-well cell culture plates (Invitrogen) 16 h prior to compound addition. Compounds were preincubated with cells for 4 h at 37° C. prior to the addition of virus sufficient to generate approximately 10000 Luciferase light units (as measured by the Victor Wallace luminometer) upon assaying using the Bright-Glo™ reagent (Promega) according to the manufacturer's instructions at 48 h post infection.
In the tables below, this assay is referred to as NLXLuc or HIV-Luc.

[1] = Bioavailability and pharmacokinetic profile following intravenous and oral administration; assay type: in vivo, Male Sprague Dawley Rats; settings: for MRT inf: read-out: MRT(0-∞); for Vd: read-out: Vz
Method: (§1) Method: For IV infusion over 10 minutes the compound of Example 3.4 was dissolved in 20% DMSO, 30% PEG400 and 50% Water. For oral (PO) dosing AVX62738 was dissolved in 0.5% benzyl alcohol and 0.4% Tween 80 and 99.1% 0.5% hydroxypropylmethylcellulose. Compounds were dosed IV and then after a one week washout, orally in the same rats. (Body weight: Rat 1: 254.7 g; Rat 2: 253.4 g). Ex-vivo plasma samples were assayed for AVX62738 using an LC-ms method of Lower limit of quantitation. (LLOQ)=2.5 ng/mL.

[2] = Clinical Observation following intravenous and oral administration; assay type: in vivo, Male Sprague Dawley Rats
Method: as §1

[3] = male, Sprague Dawley, rat, plasma, iv, 5 mg/kg, IV 5 mg/kg, Mean
[4] = male, Sprague Dawley, rat, plasma, iv, 5 mg/kg, IV 5 mg/kg, Rat 1
[5] = male, Sprague Dawley, rat, plasma, iv, 5 mg/kg, IV 5 mg/kg, Rat 2
[6] = male, Sprague Dawley, rat, plasma, iv, 5 mg/kg, IV (5 mg/kg), Mean
[7] = male, Sprague Dawley, rat, plasma, iv, 5 mg/kg, IV (5 mg/kg), animal 701
[8] = male, Sprague Dawley, rat, plasma, po, 10 mg/kg, PO 10 mg/kg, Mean
[9] = male, Sprague Dawley, rat, plasma, po, 10 mg/kg, PO 10 mg/kg, Rat 1
[10] = male, Sprague Dawley, rat, plasma, po, 10 mg/kg, PO 10 mg/kg, Rat 2
[11] = male, Sprague Dawley, rat, plasma, po, 10 mg/kg, PO (10 mg/kg), Mean
[12] = male, Sprague Dawley, rat, plasma, po, 10 mg/kg, PO (10 mg/kg), animal 801
[13] = male, Sprague Dawley, rat, plasma, po, 10 mg/kg, PO (10 mg/kg), animal 802
[14] = male, Sprague-Dawley, rat, plasma, iv, 5 mg/kg, IV (5 mg/kg), animal 701
[15] = male, Sprague-Dawley, rat, plasma, iv, 5 mg/kg, IV (5 mg/kg), animal 702

CN1CCN(c2cc(N3CCN(C)S3(=O)=O)c3nc(C(=O)NCc4ccc(F)cc4)c(O)c(=O)n3c2)CC1 [Example 3.4, 3-Hydroxy-9-(5-methyl-1,1-dioxo-1,6-[1,2,5]thiadiazolidin-2-yl)-7-(4-methyl-piperazin-1-yl)-4-oxo-4H-pyrido[1,2-a]pyrimidine-2-carboxylic acid 4-fluoro-benzylamide]
EC50 (HIV-1): 1 to 10 nM | Plasma Concentration ([1]; IV 5 mg/kg, Rat 1, 24 hr): BLQ (BLQ: Below limit of quantitation) | Plasma Concentration ([1]; IV 5 mg/kg, Rat 1, Pre-dose): BLQ (BLQ: Below limit of quantitation) | Plasma Concentration ([1]; IV 5 mg/kg, Rat 2, 24 hr): BLQ (BLQ: Below limit of quantitation) | Plasma Concentration ([1]; IV 5 mg/kg, Rat 2, Pre-dose): BLQ (BLQ: Below limit of quantitation) | CLz ([1]; IV (5 mg/kg), Mean): 44.8 mL/min/kg | t1/2z ([1]; IV (5 mg/kg), Mean): 80.4 min | CLz ([1]; IV (5 mg/kg), animal 701): 44.8 mL/min/kg | t1/2z ([1]; IV (5 mg/kg), animal 701): 83.4 min | CLz ([1]; IV (5 mg/kg), animal 702): 44.8 mL/min/kg | t1/2z ([1]; IV (5 mg/kg), animal 702): 77.4 min | Plasma Concentration ([1]; PO 10 mg/kg, Rat 1, Pre-dose): BLQ (BLQ: Below limit of quantitation) | Plasma Concentration ([1]; PO 10 mg/kg, Rat 2, 6 hr): BLQ (BLQ: Below limit of quantitation) | Plasma Concentration ([1]; PO 10 mg/kg, Rat 2, 8 hr): BLQ (BLQ: Below limit of quantitation) | Plasma Concentration ([1]; PO 10 mg/kg, Rat 2, 24 hr): BLQ (BLQ: Below limit of quantitation) | Plasma Concentration ([1]; PO 10 mg/kg, Rat 2, Pre-dose): BLQ (BLQ: Below limit of quantitation) | F ([1]; PO (10 mg/kg), Mean): 2.95% | t1/2z ([1]; PO (10 mg/kg), Mean): 74.4 min | F ([1]; PO (10 mg/kg), animal 801): 2.39% | t1/2z ([1]; PO (10 mg/kg), animal 801): 99 min | F ([1]; PO (10 mg/kg), animal 802): 3.50% | t1/2z ([1]; PO (10 mg/kg), animal 802): 49.8 min | concentration at 0.083 hr [1, 3]: 3030 ng/mL | concentration at 0.25 hr [1, 3]: 2060 ng/mL | concentration at 0.5 hr [1, 3]: 1140 ng/mL | concentration at 1 hr [1, 3]: 527 ng/mL | concentration at 2 hr [1, 3]: 113 ng/mL | concentration at 4 hr [1, 3]: 19 ng/mL | concentration at 6 hr ([1]; male, Sprague Dawley, rat, plasma, iv, 5 mg/kg, IV 5 mg/kg, Mean, 6 hr): 6.21 ng/mL | concentration at 8 h ([1]; male, Sprague Dawley, rat, plasma, iv, 5 mg/kg, IV 5 mg/kg, Mean, 8 hr): 2.41 ng/mL | concentration at 0.083 hr [1, 4]: 2710 ng/mL | concentration at 0.25 hr [1, 4]: 1990 ng/mL | concentration at 0.5 hr [1, 4]: 1210 ng/mL | concentration at 1 hr [1, 4]: 548 ng/mL | concentration at 2 hr [1, 4]: 123 ng/mL | concentration at 4 hr [1, 4]: 19.3 ng/mL | concentration at 6 hr ([1]; male, Sprague Dawley, rat, plasma, iv, 5 mg/kg, IV 5 mg/kg, Rat 1, 6 hr): 5.44 ng/mL | concentration at 8 h ([1]; male, Sprague Dawley, rat, plasma, iv, 5 mg/kg, IV 5 mg/kg, Rat 1, 8 hr): 2.64 ng/mL | concentration at 0.083 hr [1, 5]: 3350 ng/mL | concentration at 0.25 hr [1, 5]: 2130 ng/mL | concentration at 0.5 hr [1, 5]: 1060 ng/mL | concentration at 1 hr [1, 5]: 506 ng/mL | concentration at 2 hr [1, 5]: 104 ng/mL | concentration at 4 hr [1, 5]: 18.7 ng/mL | concentration at 6 hr ([1]; male, Sprague Dawley, rat, plasma, iv, 5 mg/kg, IV 5 mg/kg, Rat 2, 6 hr): 6.97 ng/mL | concentration at 8 h ([1]; male, Sprague Dawley, rat, plasma, iv, 5 mg/kg, IV 5 mg/kg, Rat 2, 8 hr): 2.19 ng/mL | AUC(0-inf) [1, 6]: 1860 ng·h/mL | AUC(0-t) [1, 6]: 1850 ng·h/mL | Cmax [1, 6]: 3030 ng/mL | Tmax [1, 6]: 4.8 min | MRT inf [1, 6]: 39.6 min | Vd [1, 6]: 5.21 L/kg | AUC(0-inf) [1, 7]: 1860 ng·h/mL | AUC(0-t) [1, 7]: 1860 ng·h/mL | Tmax [1, 7]: 4.8 min | MRT inf [1, 7]: 40.8 min | concentration at 0.083 hr [1, 8]: 35.2 ng/mL | concentration at 0.25 hr [1, 8]: 72.2 ng/mL | concentration at 0.5 hr [1, 8]: 63.6 ng/mL | concentration at 1 hr [1, 8]: 39.5 ng/mL | concentration at 2 hr [1, 8]: 14.1 ng/mL | concentration at 4 hr [1, 8]: 5.29 ng/mL | concentration at 6 h ([1]; male, Sprague Dawley, rat, plasma, po, 10 mg/kg, PO 10 mg/kg, Mean, 6 hr): 1.31 ng/mL | concentration at 0.083 hr [1, 9]: 42.4 ng/mL | concentration at 0.25 hr [1, 9]: 66.2 ng/mL | concentration at 0.5 hr [1, 9]: 35.7 ng/mL | concentration at 1 hr [1, 9]: 20.9 ng/mL | concentration at 2 hr [1, 9]: 13.8 ng/mL | concentration at 4 hr [1, 9]: 5.62 ng/mL | concentration at 6 hr ([1]; male, Sprague Dawley, rat, plasma, po, 10 mg/kg, PO 10 mg/kg, Rat 1, 6 hr): 2.62 ng/mL | concentration at 8 h ([1]; male, Sprague Dawley, rat, plasma, po, 10 mg/kg, PO 10 mg/kg, Rat 1, 8 hr, not kept for calculation): 148 ng/mL | concentration at 24 h ([1]; male, Sprague Dawley, rat, plasma, po, 10 mg/kg, PO 10 mg/kg, Rat 1, 24 hr, not kept for calculation): 4.66 ng/mL | concentration at 0.083 hr [1, 10]: 28.1 ng/mL | concentration at 0.25 hr [1, 10]: 78.1 ng/mL | concentration at 0.5 hr [1, 10]: 91.6 ng/mL | concentration at 1 hr [1, 10]: 58.1 ng/mL | concentration at 2 hr [1, 10]: 14.3 ng/mL | concentration at 4 hr [1, 10]: 4.96 ng/mL | AUC(0-inf) [1, 11]: 110 ng·h/mL | AUC(0-t) [1, 11]: 103 ng·h/mL | Cmax [1, 11]: 78.9 ng/mL | Tmax [1, 11]: 22.8 min | MRT inf [1, 11]: 97.8 min | AUC(0-inf) [1, 12]: 89 ng·h/mL | AUC(0-t) [1, 12]: 82.8 ng·h/mL | Cmax [1, 12]: 66.2 ng/mL | Tmax [1, 12]: 15 min | MRT inf [1, 12]: 122 min | AUC(0-inf) [1, 13]: 130 ng·h/mL | AUC(0-t) [1, 13]: 124 ng·h/mL | Cmax [1, 13]: 91.6 ng/mL | Tmax [1, 13]: 30 min | MRT inf [1, 13]: 73.2 min | Cmax [1, 14]: 2710 ng/mL | Vd [1, 14]: 5.39 L/kg | AUC(0-inf) [1, 15]: 1860 ng·h/mL | AUC(0-t) [1, 15]: 1850 ng·h/mL | Cmax [1, 15]: 3350 ng/mL | Tmax [1, 15]: 4.8 min | MRT inf [1, 15]: 37.8 min | Vd [1, 15]: 5.02 L/kg | Clinical Observation ([2]; following intravenous administration (5 mg/kg)): Following intravenous administration, no obvious abnormalities were | Clinical Observation ([2]; following oral administration (10 mg/kg)): Following oral administration, no obvious abnormalities were observed.

Reference: patent US20130178469A1, “NOVEL ANTIVIRAL AGENTS” (SHANGHAI INSTITUTE OF ORGANIC CHEMISTRY (SIOC), priority 2010, published 2013)
